# Source: patent US20120231470A1, “METHODS AND SYSTEMS ASSOCIATED WITH DETECTION OF FATTY ACID ELONGATION IN A CELL” (priority 2011, published 2012)
# What was measured:
# [1] = known (Ref 10); cited from earlier work
# [2] = tested on: fatty acid biosynthesis in B392 cells; test: High-throughput 96-well screen for fatty acid biosynthesis inhibitors; type: cell-based, Vibrio harveyi; conditions: B392, 96-well plate; for Detection as fatty acid biosynthesis inhibitor in the high-throughput screen: FIG. 6; for Fluorescence ratio between non-treated cells and drug treated cells: C6N3 5 mM overnight, final drug concentrations 500, 50 or 5 μM, cerulenin at sub-bacteriostatic concentration
# Description: In this example, a high-throughput cell-based antibiotic screen, which would identify fatty acid biosynthesis inhibitors, was implemented. B392 cells in a 96-well plate were treated with various concentrations of commercially available fatty acid biosynthesis inhibitors, including cerulenin (Ref. 8), bischloroanthrabenzoxocinone (Ref. 10), thiolactomycin (Ref. 11), and platensimycin (Ref. 2) as well as a number of arbitrarily chosen drugs (listed in TABLE 3).
# In TABLE 3 above, rows of the 96-well plate are indicated by a letter and the columns are indicated by a number. Antibiotics labeled with a *, the wells contain 200× stocks of 10 mM and 1 mM of antibiotic in descending order. For bischloroanthrabenzoxocinone, thiolactomycin, and platensimycin, the wells only contain 200× stocks of 1 mM of antibiotic. For other antibiotics, the wells contain 200× stocks of 100 mM, 10 mM, and 1 mM of antibiotic in descending order.
# B392 cells given no drug treatment served as the control. Cells were then fed with C6N3 and allowed to grow overnight. Extracellular C6N3 was washed away with 0.9% NaCl three times, and cellular lipids were click-reacted with 50 μM cyclooctyne-coumarin conjugate for 30 minutes at 37° C. Non-reacted cyclooctyne-coumarin conjugate was washed away with 0.9% NaCl three times, and cells were re-suspended in 0.9% NaCl to be analyzed by plate reader. […]. It should be noted that the same method described here in Example 3 can be used to identify compounds which enhance fatty acid biosynthesis. […].
# In particular, B392 cells were grown in 150 mL cultures of synthetic media (Ref. 9) until OD 0.3 was reached. Cells were transferred (1 mL of the culture loaded into each well) to a 2 mL 96-well plate via a multi-pipette robot (this robot was used for most liquid transfers mentioned in this example). To each well, 5 μL of antibiotic from a 200× stock antibiotic plate in DMSO (TABLE 3) was introduced to create final treatment concentrations of 500 μM, 50 μM, and 5 μM. After 30 minutes, 10 μL of 500 mM C6N3 in DMSO was introduced to each well for a final treatment concentration of 5 mM. Cells were grown overnight, then spun down at 2000 g for 10 minutes. Supernatant was removed, and then non-incorporated C6N3 was washed from cells three times by re-suspending the cells in 1 mL of 0.9% NaCl, spinning the cells down at 2000 g for 10 minutes, and removing the supernatant. The cells were re-suspended in 200 μL of 50 μM cyclooctyne-coumarin conjugate in 0.9% NaCl and incubated at 37° C. for 30 minutes. Cells were collected and washed three more times with 1 mL of 0.9% NaCl to remove non-reacted cyclooctyne-coumarin conjugate, and cells re-suspended in 400 μL of 0.9% NaCl were analyzed by plate reader for fluorescence (excitation 380 nm, detection 500 nm) and cell density.
# [3] = tested on: fatty acid elongation in Vibrio harveyi strain B392; test: C6N3 incorporation/elongation assay, cyclooctyne-coumarin labeling, plate reader; type: cell-based
# Description: (§1) In particular, the cells were grown in 5 mL of synthetic media (Ref 9), and at OD 0.2, cerulenin was introduced to appropriate samples for a final treatment concentration of 10 μg/mL (sub-bacteriostatic). Then, at OD 0.3, C6N3 was introduced to appropriate samples for a final treatment concentration of 5 mM. After allowing the cells to grow in presence of C6N3 for 5 hours, the cells were spun down at 5000 g for 10 minutes, and the supernatant was removed. Non-incorporated C6N3 was washed from cells three times by re-suspending the cell pellet in 10 mL of 0.9% NaCl, spinning the cells down at 5000 g for 10 minutes, and removing the supernatant. […] The cells were re-suspended in 1 mL of 50 μM cyclooctyne-coumarin conjugate in 0.9% NaCl and incubated at 37° C. for 30 minutes. Cells were collected and washed three more times with 10 mL of 0.9% NaCl to remove non-reacted cyclooctyne-coumarin conjugate, and a fraction of the cells re-suspended in 2 mL of 0.9% NaCl were analyzed by plate reader (excitation 380 nm, detection 500 nm) or flow cytometry (excitation 407 nm, detection 450/40 bandpass filter).
# (§2) In particular, the cells were grown in 5 mL of synthetic media (Ref 9), and at OD 0.2, cerulenin was introduced to appropriate samples for a final treatment concentration of 10 μg/mL (sub-bacteriostatic). Then, at OD 0.3, C6N3 was introduced to appropriate samples for a final treatment concentration of 5 mM. After allowing the cells to grow in presence of C6N3 for 5 hours, the cells were spun down at 5000 g for 10 minutes, and the supernatant was removed. Non-incorporated C6N3 was washed from cells three times by re-suspending the cell pellet in 10 mL of 0.9% NaCl, spinning the cells down at 5000 g for 10 minutes, and removing the supernatant. The cells were re-suspended in 1 mL of 50 μM cyclooctyne-coumarin conjugate in 0.9% NaCl and incubated at 37° C. for 30 minutes. Cells were collected and washed three more times with 10 mL of 0.9% NaCl to remove non-reacted cyclooctyne-coumarin conjugate, and cells re-suspended in 2 mL of 0.9% NaCl were analyzed by plate reader (excitation 380 nm, detection 500 nm) or flow cytometry (excitation 407 nm, detection 450/40 bandpass filter).
# [4] = tested on: fatty acid elongation in V. harveyi strain CY1723; test: as above; type: cell-based, Vibrio harveyi; conditions: C6N3 5 mM + cerulenin 10 μg/mL
# Description: as §1
# In particular, the cells were grown in 5 mL of synthetic media (Ref 9), and at OD 0.2, cerulenin was introduced to appropriate samples for a final treatment concentration of 10 μg/mL (sub-bacteriostatic). […]
# [5] = tested on: fatty acid elongation in V. harveyi B392; test: C6N3 incorporation/elongation assay, cyclooctyne-coumarin labeling, flow cytometry; type: cell-based, Vibrio harveyi; conditions: C6N3 5 mM + cerulenin 10 μg/mL
# Description: as §2
# (§3) In addition, the samples were analyzed by flow cytometry (FIG. 4)
# [6] = tested on: fatty acid elongation in V. harveyi CY1723; test: as above; type: cell-based, Vibrio harveyi; conditions: C6N3 5 mM + cerulenin 10 μg/mL
# Description: as §2, §3
compound,measurement,setting,value
COc1cc(C)c2c(c1)O[C@]1(C)Cc3cc4c(c(O)c3[C@H]2O1)C(=O)c1c(O)c(Cl)c(O)c(Cl)c1C4(C)C [Bischloroanthrabenzoxocinone],Cell permeability,[1],poor cell permeability
same,Detection as fatty acid biosynthesis inhibitor in the high-throughput screen,[2],not detected
"C/C=C/C/C=C/CCC(=O)[C@H]1O[C@H]1C(N)=O [cerulenin, Cerulenin]",Fluorescence/OD,"[3]; B392, C6N3 5 mM + cerulenin 10 μg/mL, 5 hours, plate reader",45609
same,Ratio (fluorescence/OD of Entry 1 divided by fluorescence/OD of the sample),"[3]; B392, C6N3 5 mM + cerulenin 10 μg/mL, plate reader",11.58
same,Fold decrease in fluorescence of cerulenin-treated culture compared to the same culture untreated,"[3]; B392, C6N3 5 mM, cerulenin 10 μg/mL, FIG. 3",about seven-fold
same,Inhibition of fatty acid biosynthesis / azide incorporation in lipids,"[3]; B392 and CY1723 cells treated with C6N3 and cerulenin, TABLES 1 and 2",inhibited fatty acid biosynthesis efficiently
same,Ratio (fluorescence/OD of Entry 1 divided by fluorescence/OD of the sample),[4],11.99
same,Fluorescence/OD,[4]; 5 hours,44069
same,Mean fluorescence,[5],2347
same,Ratio (mean fluorescence of Entry 1 divided by mean fluorescence of the sample),[5],8.06
same,Mean fluorescence,[6],1704
same,Ratio (mean fluorescence of Entry 1 divided by mean fluorescence of the sample),[6],11.09
same,Fluorescence ratio between non-treated cells and drug treated cells,[2],~4.5
same,Detection as fatty acid biosynthesis inhibitor in the high-throughput screen,[2],can be detected
"CC12C[C@@]34C=CC(=O)[C@@](C)(CCC(=O)Nc5c(O)ccc(C(=O)O)c5O)C3[C@H](CC1C4)O2 (stereo partly drawn) [platensimycin, Platensimycin]",Fluorescence ratio between non-treated cells and drug treated cells,[2],~2.6
same,Detection as fatty acid biosynthesis inhibitor in the high-throughput screen,[2],can be detected
"C=C/C(C)=C/[C@@]1(C)SC(=O)C(C)=C1O [thiolactomycin, Thiolactomycin]",Fluorescence ratio between non-treated cells and drug treated cells,[2],~4.0
same,Detection as fatty acid biosynthesis inhibitor in the high-throughput screen,[2],can be detected
